# Test results taken from US20060069132A1, “Azolecarboxamide herbicides” (priority 2004, published 2006).
# Key:
# [1] = tested on: small flower umbrella sedge; assay: Test B flooded paddy test; assay type: in vivo, Cyperus difformis; conditions: 1000 g ai/ha, scale 0 to 100 (0 no effect, 100 complete control)
# Outline: (§1)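 Scale 0–100: zero equals no visible effect, 100 complete control, judged by eye relative to controls. Timing: 13 to 15 days in greenhouse post-treatment. Growth stage at spraying: two leaves (paddy) or one to four leaves, 2–18 cm (postemergence).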
# Surinam grass = assay: Test B pre-/postemergence herbicide test; assay type: in vivo, Urochloa decumbens
# Outline: (§2)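 Formulation: non-phytotoxic solvent mix with surfactant. Timing: preemergence on seed and postemergence on 2–18 cm plants, applied concurrently. Readout after 13–15 d greenhouse: visual 0–100 control rating against controls.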
# wild oat = assay: Test B postemergence herbicide test; assay type: in vivo, Avena fatua
# Outline: (§3)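 Greenhouse test; postemergence application to plants at 1–4 leaves (2–18 cm); paddy species at 2 leaves; evaluated visually vs controls at 13–15 days; scale 0–100 (100 = complete control).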
# barnyardgrass [2] = assay: Test B flooded paddy test; assay type: in vivo, Echinochloa crus-galli; conditions: 1000 g ai/ha, scale 0 to 100 (0 no effect, 100 complete control)
# Outline: as §1
# cocklebur = assay: Test B pre-/postemergence herbicide test; assay type: in vivo, Xanthium strumarium
# Outline: as §2
# corn = assay: Test B pre-/postemergence herbicide test; assay type: in vivo, Zea mays
# Outline: as §2
# wheat = assay: Test B postemergence herbicide test; assay type: in vivo, Triticum aestivum; parameters: key to Wheat plant response rating: 0 = no effect, 100 = complete control
# Outline: as §3
# large crabgrass = assay: Test B pre-/postemergence herbicide test; assay type: in vivo, Digitaria sanguinalis
# Outline: as §2
# ducksalad = assay: Test B flooded paddy test; assay type: in vivo, Heteranthera limosa; conditions: 1000 g ai/ha, scale 0 to 100 (0 no effect, 100 complete control)
# Outline: as §1
# rice = assay: Test B flooded paddy test; assay type: in vivo, Oryza sativa; conditions: 1000 g ai/ha, scale 0 to 100 (0 no effect, 100 complete control)
# Outline: as §1
# pigweed = assay: Test B pre-/postemergence herbicide test; assay type: in vivo, Amaranthus retroflexus
# Outline: as §2
# morningglory = assay: Test B pre-/postemergence herbicide test; assay type: in vivo, Ipomoea coccinea
# Outline: as §2
# lambsquarters = assay: Test B pre-/postemergence herbicide test; assay type: in vivo, Chenopodium album
# Outline: as §2
# blackgrass = assay: Test B postemergence herbicide test; assay type: in vivo, Alopecurus myosuroides
# Outline: as §1
# barnyardgrass [3] = assay: Test B pre-/postemergence herbicide test; assay type: in vivo, Echinochloa crus-galli
# Outline: as §2
# giant foxtail = assay: Test B pre-/postemergence herbicide test; assay type: in vivo, Setaria faberi
# Outline: as §2
# [4] = Postemergence, 500 g ai/ha, visual rating after 13 to 15 days, scale 0 (no effect) to 100 (complete control)
# [5] = Preemergence, 500 g ai/ha, scale 0 to 100
# [6] = preemergence, 125 g ai/ha, 0 to 100 scale, 0 is no effect, 100 is complete control
# [7] = Postemergence, 125 g ai/ha, scale 0 (no effect) to 100 (complete control)
# [8] = 125 g ai/ha, 0 = no effect, 100 = complete control, preemergence
# [9] = 500 g ai/ha, visual rating 0-100, 0 no effect, 100 complete control, preemergence
# [10] = postemergence, 125 g ai/ha, visual rating, scale 0 (no effect) to 100 (complete control)
# [11] = postemergence, 500 g ai/ha, visual rating, scale 0 (no effect) to 100 (complete control)
# [12] = 125 g ai/ha, 0 is no effect, 100 is complete control, preemergence
# [13] = 125 g ai/ha, visual rating, scale 0 (no effect) to 100 (complete control), postemergence
# [14] = 500 g ai/ha, visual rating, 0 = no effect, 100 = complete control, preemergence
# [15] = postemergence, 500 g ai/ha, scale 0 to 100, 0 is no effect, 100 is complete control
structure (smiles),measurement,setting,value
C#CCNC(=O)c1cccc(NC(=O)c2cc(C(C)(C)C)nn2CC)c1 [Compound 47],"Sedge, Umbrella plant response rating","[1]; visual rating, 13 to 15 days",80
same,"Plant response rating, Surinam Grass",Surinam grass; [4],40
same,Surinam Grass plant response rating,Surinam grass; [5],70
same,"Plant response rating, Surinam Grass",Surinam grass; [6],20
same,"Oat, Wild plant response rating",wild oat; [7],10
same,"Plant response rating, Oat, Wild",wild oat; [4],30
same,Barnyardgrass plant response rating,"barnyardgrass [2]; visual rating, 13 to 15 days",90
same,Cocklebur plant response rating,cocklebur; [7],10
same,"Plant response rating, Cocklebur",cocklebur; [4],100
same,Cocklebur plant response rating,cocklebur; [5],40
same,Corn plant response rating,corn; [7],10
same,"Plant response rating, Corn",corn; [4],30
same,Corn plant response rating,corn; [5],10
same,"Plant response rating, Wheat","wheat; Postemergence, 500 g ai/ha; visual rating after 13 to 15 days, scale 0 (no effect) to 100 (complete control)",30
same,"Crabgrass, Large plant response rating",large crabgrass; [7],10
same,"Plant response rating, Crabgrass, Large",large crabgrass; [4],70
same,"Crabgrass, Large plant response rating",large crabgrass; [5],100
same,Ducksalad plant response rating,"ducksalad; visual rating, 13 to 15 days",80
same,Rice plant response rating,"rice; visual rating, 13 to 15 days",70
same,"Plant response rating, Pigweed",pigweed; [4],100
same,Pigweed plant response rating,pigweed; [5],100
same,"Plant response rating, Pigweed",pigweed; [6],100
same,Morningglory plant response rating,morningglory; [7],30
same,"Plant response rating, Morningglory",morningglory; [4],100
same,Morningglory plant response rating,morningglory; [5],30
same,"Plant response rating, Morningglory",morningglory; [6],20
same,Lambsquarters plant response rating,lambsquarters; [7],80
same,"Plant response rating, Lambsquarters",lambsquarters; [4],90
same,Lambsquarters plant response rating,lambsquarters; [5],100
same,"Plant response rating, Lambsquarters",lambsquarters; [6],100
same,Blackgrass plant response rating,blackgrass; [7],10
same,"Plant response rating, Blackgrass",blackgrass; [4],10
same,Barnyardgrass plant response rating,barnyardgrass [3]; [7],20
same,"Plant response rating, Barnyardgrass",barnyardgrass [3]; [4],40
same,Barnyardgrass plant response rating,barnyardgrass [3]; [5],90
same,"Foxtail, Giant plant response rating",giant foxtail; [7],30
same,"Plant response rating, Foxtail, Giant",giant foxtail; [4],30
same,"Foxtail, Giant plant response rating",giant foxtail; [5],90
same,"Plant response rating, Foxtail, Giant",giant foxtail; [6],40
C=CCNC(=O)c1cccc(NC(=O)c2sc(C(C)(C)C)nc2CC)c1 [Compound 207],"Sedge, Umbrella plant response rating","[1]; visual rating, 13 to 15 days",80
same,Surinam Grass plant response rating (0 to 100 scale),Surinam grass; [8],40
same,"Plant response rating, Surinam Grass",Surinam grass; [9],60
same,Surinam Grass plant response rating,Surinam grass; [10],20
same,Surinam Grass plant response rating,Surinam grass; [11],20
same,"Oat, Wild plant response rating",wild oat; [10],20
same,"Oat, Wild plant response rating",wild oat; [11],20
same,Barnyardgrass plant response rating,"barnyardgrass [2]; visual rating, 13 to 15 days",80
same,Cocklebur plant response rating (0 to 100 scale),cocklebur; [8],10
same,"Plant response rating, Cocklebur",cocklebur; [9],20
same,Cocklebur plant response rating,cocklebur; [10],40
same,Cocklebur plant response rating,cocklebur; [11],80
same,Corn plant response rating (0 to 100 scale),corn; [8],10
same,"Plant response rating, Corn",corn; [9],50
same,Corn plant response rating,corn; [10],20
same,Corn plant response rating,corn; [11],20
same,Wheat plant response rating,"wheat; postemergence, 125 g ai/ha; visual rating, scale 0 (no effect) to 100 (complete control)",20
same,Wheat plant response rating,"wheat; postemergence, 500 g ai/ha; visual rating, scale 0 (no effect) to 100 (complete control)",20
same,"Crabgrass, Large plant response rating (0 to 100 scale)",large crabgrass; [8],70
same,"Plant response rating, Crabgrass, Large",large crabgrass; [9],100
same,"Crabgrass, Large plant response rating",large crabgrass; [10],20
same,"Crabgrass, Large plant response rating",large crabgrass; [11],20
same,Ducksalad plant response rating,"ducksalad; visual rating, 13 to 15 days",90
same,Rice plant response rating,"rice; visual rating, 13 to 15 days",60
same,Pigweed plant response rating (0 to 100 scale),pigweed; [8],90
same,"Plant response rating, Pigweed",pigweed; [9],100
same,Pigweed plant response rating,pigweed; [10],30
same,Pigweed plant response rating,pigweed; [11],60
same,Morningglory plant response rating (0 to 100 scale),morningglory; [8],20
same,"Plant response rating, Morningglory",morningglory; [9],40
same,Morningglory plant response rating,morningglory; [10],10
same,Morningglory plant response rating,morningglory; [11],20
same,Lambsquarters plant response rating (0 to 100 scale),lambsquarters; [8],80
same,"Plant response rating, Lambsquarters",lambsquarters; [9],100
same,Lambsquarters plant response rating,lambsquarters; [10],50
same,Lambsquarters plant response rating,lambsquarters; [11],80
same,Blackgrass plant response rating,blackgrass; [10],0
same,Blackgrass plant response rating,blackgrass; [11],10
same,Barnyardgrass plant response rating (0 to 100 scale),barnyardgrass [3]; [8],80
same,"Plant response rating, Barnyardgrass",barnyardgrass [3]; [9],90
same,Barnyardgrass plant response rating,barnyardgrass [3]; [10],20
same,Barnyardgrass plant response rating,barnyardgrass [3]; [11],20
same,"Foxtail, Giant plant response rating (0 to 100 scale)",giant foxtail; [8],50
same,"Plant response rating, Foxtail, Giant",giant foxtail; [9],90
same,"Foxtail, Giant plant response rating",giant foxtail; [10],20
same,"Foxtail, Giant plant response rating",giant foxtail; [11],20
CCn1nc(C(C)(C)C)cc1C(=O)Nc1cc(C(=S)N(C)C)ccn1 [Compound 334],"Sedge, Umbrella plant response rating",[1],80
same,"Plant response rating (0 to 100 scale), Surinam Grass",Surinam grass; [12],80
same,Surinam Grass plant response rating,Surinam grass; [13],20
same,"Plant response rating, Surinam Grass",Surinam grass; [14],100
same,Surinam Grass plant response rating,Surinam grass; [15],50
same,"Oat, Wild plant response rating",wild oat; [13],20
same,"Oat, Wild plant response rating",wild oat; [15],30
same,Barnyardgrass plant response rating,barnyardgrass [2],90
same,"Plant response rating (0 to 100 scale), Cocklebur",cocklebur; [12],60
same,Cocklebur plant response rating,cocklebur; [13],20
same,"Plant response rating, Cocklebur",cocklebur; [14],100
same,Cocklebur plant response rating,cocklebur; [15],70
same,"Plant response rating (0 to 100 scale), Corn",corn; [12],20
same,Corn plant response rating,corn; [13],0
same,"Plant response rating, Corn",corn; [14],70
same,Corn plant response rating,corn; [15],20
same,Wheat plant response rating,"wheat; 125 g ai/ha; visual rating, scale 0 (no effect) to 100 (complete control); postemergence",10
same,Wheat plant response rating,"wheat; postemergence, 500 g ai/ha; scale 0 to 100, 0 is no effect, 100 is complete control",20
same,"Plant response rating (0 to 100 scale), Crabgrass, Large",large crabgrass; [12],90
same,"Crabgrass, Large plant response rating",large crabgrass; [13],10
same,"Plant response rating, Crabgrass, Large",large crabgrass; [14],100
same,"Crabgrass, Large plant response rating",large crabgrass; [15],50
same,Ducksalad plant response rating,ducksalad,90
same,Rice plant response rating,rice,80
same,"Plant response rating (0 to 100 scale), Pigweed",pigweed; [12],60
same,Pigweed plant response rating,pigweed; [13],40
same,"Plant response rating, Pigweed",pigweed; [14],100
same,Pigweed plant response rating,pigweed; [15],70
same,"Plant response rating (0 to 100 scale), Morningglory",morningglory; [12],0
same,Morningglory plant response rating,morningglory; [13],50
same,"Plant response rating, Morningglory",morningglory; [14],70
same,Morningglory plant response rating,morningglory; [15],80
same,"Plant response rating (0 to 100 scale), Lambsquarters",lambsquarters; [12],100
same,Lambsquarters plant response rating,lambsquarters; [13],70
same,"Plant response rating, Lambsquarters",lambsquarters; [14],100
same,Lambsquarters plant response rating,lambsquarters; [15],90
same,Blackgrass plant response rating,blackgrass; [13],30
same,Blackgrass plant response rating,blackgrass; [15],70
same,"Plant response rating (0 to 100 scale), Barnyardgrass",barnyardgrass [3]; [12],90
same,Barnyardgrass plant response rating,barnyardgrass [3]; [13],0
same,"Plant response rating, Barnyardgrass",barnyardgrass [3]; [14],100
same,Barnyardgrass plant response rating,barnyardgrass [3]; [15],60
same,"Plant response rating (0 to 100 scale), Foxtail, Giant",giant foxtail; [12],90
same,"Foxtail, Giant plant response rating",giant foxtail; [13],10
same,"Plant response rating, Foxtail, Giant",giant foxtail; [14],100
same,"Foxtail, Giant plant response rating",giant foxtail; [15],60
